What was measured:
Assay type in all cases: cell-based
DU-145 (prostate cancer) = test: NCI-60 SRB cytotoxicity screen
IGROV1 (ovarian cancer) = test: NCI-60 SRB cytotoxicity screen
SF-539 (CNS cancer) = test: NCI-60 SRB cytotoxicity screen
A498 (renal cancer) = test: NCI-60 SRB cytotoxicity screen
COLO 205 (colon cancer) = test: NCI-60 SRB cytotoxicity screen
SNB-19 (CNS cancer) = test: NCI-60 SRB cytotoxicity screen
OVCAR-8 (ovarian cancer) = test: NCI-60 SRB cytotoxicity screen
MOLT-4 (leukemia) = test: NCI-60 SRB cytotoxicity screen
SK-MEL-28 (melanoma) = test: NCI-60 SRB cytotoxicity screen
SN12C (renal cancer) = test: NCI-60 SRB cytotoxicity screen
OVCAR-5 (ovarian cancer) = test: NCI-60 SRB cytotoxicity screen
[1] = test system: NCI-H23 (non-small cell lung cancer); test: NCI-60 SRB cytotoxicity screen
SNB-75 (CNS cancer) = test: NCI-60 SRB cytotoxicity screen
OVCAR-3 (ovarian cancer) = test: NCI-60 SRB cytotoxicity screen
[2] = test system: 60 cancer cell lines (NCI); test: NCI-60 single-dose screen, overall verdict over the panel; details: single dose 10 μM, whole panel
Procedure, shortened: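 Compounds were tested at a single 10^−5 M dose across the NCI 60 cell line panel, with cells preincubated 24 h before treatment. Viability was measured by TCA fixation and sulforhodamine B staining, absorbance 540 nm. % cytotoxicity = [1 − (sample/negative control absorbance)] × 100.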

CCRF-CEM (leukemia) = test: NCI-60 SRB cytotoxicity screen
[3] = Homo sapiens, SF-539, five-dose assay
[4] = Homo sapiens, A498, five-dose assay
[5] = Homo sapiens, COLO 205, five-dose assay
[6] = Homo sapiens, SNB-19, five-dose assay
[7] = Homo sapiens, SK-MEL-28, five-dose assay
[8] = Homo sapiens, single dose 10 μM, read-out: growth inhibition (GI%)
[9] = Homo sapiens, NCI-H23, five-dose assay
[10] = Homo sapiens, OVCAR-3, five-dose assay

CCc1cccc2cc(-c3cc(-c4cc(OC)c(OC)c(OC)c4)[nH]c(=O)c3C#N)c(Cl)nc12 [Compound 4c, 4-(2-Chloro-8-ethylquinolin-3-yl)-2-oxo-6-(3,4,5-trimethoxyphenyl)-1,2-dihydropyridine-3-carbonitrile]
TGI (DU-145 (prostate cancer); DU-145, five-dose assay): 38.00 µM | GI50 (DU-145 (prostate cancer); Homo sapiens, DU-145, five-dose assay): 15.5 µM | CC50 (DU-145 (prostate cancer); Homo sapiens, DU-145, five-dose assay, read-out: LC50 (the source's name)): 93.5 µM | inhibition at 10 µM (DU-145 (prostate cancer); Homo sapiens, DU-145, single dose 10 μM, read-out: growth inhibition (GI%)): 80.5% | GI50 (IGROV1 (ovarian cancer); Homo sapiens, IGROV-1, IGROV1, five-dose assay): 12.2 µM | CC50 (IGROV1 (ovarian cancer); Homo sapiens, IGROV-1, IGROV1, five-dose assay, read-out: LC50 (the source's name)): > 100 µM | inhibition at 10 µM (IGROV1 (ovarian cancer); Homo sapiens, IGROV-1, IGROV1, single dose 10 μM, read-out: growth inhibition (GI%)): 66.3% | TGI (IGROV1 (ovarian cancer); IGROV1, five-dose assay): 46.30 µM | GI50 (SF-539 (CNS cancer); [3]): 12 µM | LC50 (50% lethal concentration) (SF-539 (CNS cancer); [3]): 51.3 µM | inhibition at 10 µM (SF-539 (CNS cancer); Homo sapiens, SF-539, single dose 10 μM, read-out: growth inhibition (GI%)): > 100% | TGI (SF-539 (CNS cancer); SF-539, five-dose assay): 24.80 µM | growth inhibition (GI%) (SF-539 (CNS cancer); SF-539, single dose 10 μM): lethal effect | TGI (A498 (renal cancer); A498, five-dose assay): 45.20 µM | growth inhibition (GI%) (A498 (renal cancer); A498, single dose 10 μM): lethal effect | GI50 (A498 (renal cancer); [4]): 15.8 µM | LC50 (concentration killing 50% of cells) (A498 (renal cancer); [4]): > 100 µM | inhibition at 10 µM (A498 (renal cancer); Homo sapiens, A498, single dose 10 μM, read-out: growth inhibition (GI%)): > 100% | TGI (COLO 205 (colon cancer); COLO 205, five-dose assay): >100 µM | GI50 (COLO 205 (colon cancer); [5]): 45.6 µM | LC50 (COLO 205 (colon cancer); [5]): > 100 µM | inhibition at 10 µM (COLO 205 (colon cancer); Homo sapiens, COLO 205, single dose 10 μM, read-out: growth inhibition (GI%)): < 10% | GI50 (SNB-19 (CNS cancer); [6]): 9.25 µM | LC50 (50% lethal concentration) (SNB-19 (CNS cancer); [6]): > 100 µM | inhibition at 10 µM (SNB-19 (CNS cancer); Homo sapiens, SNB-19, single dose 10 μM, read-out: growth inhibition (GI%)): 89.6% | TGI (SNB-19 (CNS cancer); SNB-19, five-dose assay): 50.90 µM | GI50 (OVCAR-8 (ovarian cancer); Homo sapiens, OVCAR-8, five-dose assay): 18.5 µM | CC50 (OVCAR-8 (ovarian cancer); Homo sapiens, OVCAR-8, five-dose assay, read-out: LC50 (the source's name)): > 100 µM | inhibition at 10 µM (OVCAR-8 (ovarian cancer); Homo sapiens, OVCAR-8, single dose 10 μM, read-out: growth inhibition (GI%)): 92.1% | TGI (OVCAR-8 (ovarian cancer); OVCAR-8, five-dose assay): 93.60 µM | GI50 (MOLT-4 (leukemia); Homo sapiens, MOLT-4, five-dose assay): 8.17 µM | CC50 (MOLT-4 (leukemia); Homo sapiens, MOLT-4, five-dose assay, read-out: LC50 (the source's name)): > 100 µM | inhibition at 10 µM (MOLT-4 (leukemia); Homo sapiens, MOLT-4, single dose 10 μM, read-out: growth inhibition (GI%)): 76.4% | TGI (MOLT-4 (leukemia); MOLT-4, five-dose assay): 79.90 µM | GI50 (SK-MEL-28 (melanoma); [7]): 21.1 µM | LC50 (concentration causing 50% net cell kill) (SK-MEL-28 (melanoma); [7]): > 100 µM | inhibition at 10 µM (SK-MEL-28 (melanoma); Homo sapiens, SK-MEL-28, single dose 10 μM, read-out: growth inhibition (GI%)): 68.9% | TGI (SK-MEL-28 (melanoma); SK-MEL-28, five-dose assay): >100 µM | GI50 (SN12C (renal cancer); Homo sapiens, five-dose assay): 10.3 µM | LC50 (concentration killing 50% of cells) (SN12C (renal cancer); Homo sapiens, five-dose assay): 61.8 µM | inhibition at 10 µM (SN12C (renal cancer); [8]): > 100% | TGI (SN12C (renal cancer); five-dose assay): 25.20 µM | growth inhibition (GI%) (SN12C (renal cancer); single dose 10 μM): lethal effect | GI50 (OVCAR-5 (ovarian cancer); Homo sapiens, OVCAR-5, five-dose assay): 48.4 µM | CC50 (OVCAR-5 (ovarian cancer); Homo sapiens, OVCAR-5, five-dose assay, read-out: LC50 (the source's name)): > 100 µM | inhibition at 10 µM (OVCAR-5 (ovarian cancer); Homo sapiens, OVCAR-5, single dose 10 μM, read-out: growth inhibition (GI%)): 33.3% | TGI (OVCAR-5 (ovarian cancer); OVCAR-5, five-dose assay): >100 µM | GI50 [1, 9]: 3.2 µM | LC50 (concentration killing 50% of cells) [1, 9]: > 100 µM | inhibition at 10 µM ([1]; Homo sapiens, NCI-H23, single dose 10 μM, read-out: growth inhibition (GI%)): 68.6% | TGI ([1]; NCI-H23, five-dose assay): >100 µM | inhibition at 10 µM (SNB-75 (CNS cancer); Homo sapiens, SNB-75, SNB-75, single dose 10 μM, read-out: growth inhibition (GI%)): > 100% | GI50 (SNB-75 (CNS cancer); Homo sapiens, SNB-75, five-dose assay): 2.38 µM | CC50 (SNB-75 (CNS cancer); Homo sapiens, SNB-75, five-dose assay, read-out: LC50 (the source's name)): 52.6 µM | TGI (SNB-75 (CNS cancer); SNB-75, five-dose assay): 16.90 µM | GI50 (OVCAR-3 (ovarian cancer); [10]): 14.2 µM | LC50 (50% lethal concentration) (OVCAR-3 (ovarian cancer); [10]): 62.3 µM | inhibition at 10 µM (OVCAR-3 (ovarian cancer); Homo sapiens, OVCAR-3, single dose 10 μM, read-out: growth inhibition (GI%)): > 100% | TGI (OVCAR-3 (ovarian cancer); OVCAR-3, five-dose assay): 29.80 µM | growth inhibition (GI%) (OVCAR-3 (ovarian cancer); OVCAR-3, single dose 10 μM): lethal effect | cytotoxic activity over the cell lines (in words) [2]: highest level of cytotoxic activity | GI50 (CCRF-CEM (leukemia); Homo sapiens, five-dose assay): 12 µM | LC50 (CCRF-CEM (leukemia); Homo sapiens, five-dose assay): > 100 µM | inhibition at 10 µM (CCRF-CEM (leukemia); [8]): 80.4% | TGI (CCRF-CEM (leukemia); five-dose assay): >100 µM

— paper PMC11240139, “Exploring the antitumor potential of novel quinoline derivatives via tubulin polymerization inhibition in breast cancer; design, synthesis and molecular docking” (RSC Advances, 2024)
